In PMC8185074, “Anchor extension: a structure-guided approach to design cyclic peptides targeting enzyme active sites” (Nature Communications, 2021):
Where two headings read alike, the source gives them in different places. Peptide text beside a SMILES is read from it.

Key:
HDAC4 = target: T1, HDAC4 (Homo sapiens, UniProt P56524); conditions: Supp. Table 1; cited from earlier work
T1 construct: purchased BPS Biosciences

HDAC6 [1] = conditions: cited from earlier work
HDAC1 [2] = target: T2, HDAC1 (Homo sapiens, UniProt Q13547); conditions: Supp. Table 1; cited from earlier work
T2 construct: purchased Reaction Biology Corporation (assay run by the CRO)

HDAC2 [3] = target: T3, HDAC2 (Homo sapiens, UniProt Q92769); assay: HDAC2 inhibition, full IC50 measurement (Reaction Biology; fluorogenic p53 peptide RHKK(Ac)AMC); format: biochemical; conditions: for HDAC2 activity raw data (signal): single trial
T3 construct: purchased Reaction Biology Corporation (assay run by the CRO)
Procedure, shortened: (§1)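 The reaction was a 1 h, 30 °C incubation of enzyme, acoustically added peptide and 50 μM p53-derived AMC substrate in pH 8.0 Tris buffer with NaCl, KCl, MgCl2, 1 mg/ml BSA and 1% DMSO. Duplicate values were averaged.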

HDAC6 [4] = target: T4, HDAC6 (Homo sapiens, UniProt Q9UBN7); assay: HDAC6 inhibition, full IC50 measurement (Reaction Biology; fluorogenic p53 peptide RHKK(Ac)AMC); format: biochemical; conditions: for HDAC6 activity raw data (signal): single trial
T4 construct: purchased Reaction Biology Corporation (assay run by the CRO)
T4 sequence (Q9UBN7 1-1215): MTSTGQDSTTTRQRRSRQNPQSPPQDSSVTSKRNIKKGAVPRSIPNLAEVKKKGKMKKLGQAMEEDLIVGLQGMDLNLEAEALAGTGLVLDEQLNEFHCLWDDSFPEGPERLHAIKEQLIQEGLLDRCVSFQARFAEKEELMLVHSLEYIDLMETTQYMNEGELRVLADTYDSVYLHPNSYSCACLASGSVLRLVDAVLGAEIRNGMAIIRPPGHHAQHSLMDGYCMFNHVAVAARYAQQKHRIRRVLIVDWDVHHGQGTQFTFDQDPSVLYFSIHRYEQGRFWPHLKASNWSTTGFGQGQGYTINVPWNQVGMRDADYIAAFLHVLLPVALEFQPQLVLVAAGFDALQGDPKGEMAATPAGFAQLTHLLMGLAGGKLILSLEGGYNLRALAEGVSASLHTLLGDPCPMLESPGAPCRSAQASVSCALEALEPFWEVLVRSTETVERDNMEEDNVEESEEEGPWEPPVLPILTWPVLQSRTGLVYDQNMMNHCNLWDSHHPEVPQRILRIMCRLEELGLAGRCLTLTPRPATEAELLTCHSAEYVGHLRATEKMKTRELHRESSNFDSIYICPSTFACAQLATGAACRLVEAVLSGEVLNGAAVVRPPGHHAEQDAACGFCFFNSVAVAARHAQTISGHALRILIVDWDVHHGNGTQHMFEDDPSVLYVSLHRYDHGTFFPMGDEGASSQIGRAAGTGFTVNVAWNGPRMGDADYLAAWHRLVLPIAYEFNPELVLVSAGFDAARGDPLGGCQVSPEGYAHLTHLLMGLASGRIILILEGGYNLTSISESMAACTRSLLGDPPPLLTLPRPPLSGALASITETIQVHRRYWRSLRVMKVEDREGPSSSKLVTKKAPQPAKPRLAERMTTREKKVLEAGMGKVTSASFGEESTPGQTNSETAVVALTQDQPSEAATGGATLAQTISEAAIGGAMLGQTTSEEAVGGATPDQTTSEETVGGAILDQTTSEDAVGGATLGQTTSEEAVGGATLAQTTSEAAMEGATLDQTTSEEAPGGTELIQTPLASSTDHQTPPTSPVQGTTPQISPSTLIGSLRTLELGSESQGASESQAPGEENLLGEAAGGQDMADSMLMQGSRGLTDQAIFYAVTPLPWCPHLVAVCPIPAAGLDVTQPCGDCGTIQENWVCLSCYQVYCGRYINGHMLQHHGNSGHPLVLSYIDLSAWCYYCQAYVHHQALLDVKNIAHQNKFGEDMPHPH
Procedure, shortened: as §1

HDAC1 [5] = target: T2, HDAC1; assay: HDAC1 inhibition, full IC50 measurement (Reaction Biology; fluorogenic p53 peptide RHKK(Ac)AMC); format: biochemical; conditions: Supp. Table 1
Method: (§2) The assay was performed using 50 μM fluorogenic peptide from p53 residues 379-382 [RHKK(Ac)AMC] in a base reaction buffer of 50 mM Tris-HCl at pH 8.0, 137 mM NaCl, 2.7 mM KCl, 1 mM MgCl2, and freshly added 1 mg/ml BSA and 1% DMSO. Peptides were first dissolved in DMSO and then added to the reaction mixture with the enzyme using acoustic technique, enough to reach the desired concentration for that assay point. Peptide concentrations were calculated based on mass of lyophilized peptide and its molecular weight. The substrate was then added and incubated for 1 hour at 30 °C in a sealed container. After the incubation, developer was added to stop the reaction and develop color. Kinetic measurements were then performed for 20 min with Envision with 5 min intervals (Ex/Em = 360/460 nm). The endpoint after plateau was taken for IC50 measurement.
(§3) In cases where duplicate measures are used, average data is reported in the main text or Supplementary Tables.

HDAC3 = target: T5, HDAC3 (Homo sapiens, UniProt O15379); assay: HDAC3 inhibition, full IC50 measurement (Reaction Biology; fluorogenic p53 peptide RHKK(Ac)AMC); format: biochemical; conditions: for HDAC3 activity raw data (signal): single trial
T5 construct: purchased Reaction Biology Corporation (assay run by the CRO)
Method: as §2, §3

HDAC8 = target: T6, HDAC8 (Homo sapiens, UniProt Q9BY41); assay: HDAC8 inhibition, full IC50 measurement (Reaction Biology; fluorogenic p53 peptide RHKK(Ac)AMC); format: biochemical; conditions: Supp. Table 1
T6 construct: purchased Reaction Biology Corporation (assay run by the CRO)
T6 sequence (Q9BY41 1-377): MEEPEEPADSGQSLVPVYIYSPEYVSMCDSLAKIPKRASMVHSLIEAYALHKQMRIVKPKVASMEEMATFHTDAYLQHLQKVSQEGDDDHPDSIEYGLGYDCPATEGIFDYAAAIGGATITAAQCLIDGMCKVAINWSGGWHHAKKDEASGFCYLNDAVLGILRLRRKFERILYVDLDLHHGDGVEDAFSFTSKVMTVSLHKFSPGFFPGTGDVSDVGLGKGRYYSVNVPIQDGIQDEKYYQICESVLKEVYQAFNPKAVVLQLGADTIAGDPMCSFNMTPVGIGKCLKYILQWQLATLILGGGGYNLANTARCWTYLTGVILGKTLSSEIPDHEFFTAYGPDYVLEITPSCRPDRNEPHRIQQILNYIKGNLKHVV
Method: as §2, §3

HDAC2 [6] = target: T3, HDAC2; assay: Initial HDAC2 IC50 estimate (BPS Biosciences HDAC fluorogenic assay kit); format: biochemical; conditions: Supplementary Dataset 2; read-out: HDAC2 activity (initial activity)
Procedure, shortened: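 Inhibition measured by kit-based fluorogenic HDAC activity assays, with each point in duplicate or triplicate. Values come from a full 1 µM–100 pM series (1:10 steps) or are range estimates from just 20 nM and 200 nM.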

T5 sequence (O15379 whole entry): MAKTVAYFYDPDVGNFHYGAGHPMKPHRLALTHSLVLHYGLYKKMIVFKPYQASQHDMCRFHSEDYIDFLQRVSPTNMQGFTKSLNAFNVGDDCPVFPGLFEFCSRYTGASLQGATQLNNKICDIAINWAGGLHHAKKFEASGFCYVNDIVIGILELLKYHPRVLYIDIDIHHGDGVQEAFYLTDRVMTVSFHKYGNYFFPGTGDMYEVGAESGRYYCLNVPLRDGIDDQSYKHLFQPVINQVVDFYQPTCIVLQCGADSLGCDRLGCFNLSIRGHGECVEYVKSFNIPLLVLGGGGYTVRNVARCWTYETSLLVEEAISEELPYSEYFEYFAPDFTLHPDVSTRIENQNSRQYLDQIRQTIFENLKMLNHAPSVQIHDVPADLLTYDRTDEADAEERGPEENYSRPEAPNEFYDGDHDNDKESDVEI
T5 sequence (Q9Y618 395-489 partner limits assumed): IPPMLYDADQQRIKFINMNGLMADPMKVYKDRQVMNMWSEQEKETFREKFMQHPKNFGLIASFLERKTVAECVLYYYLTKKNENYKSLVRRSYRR
T3 sequence (Q92769 whole entry): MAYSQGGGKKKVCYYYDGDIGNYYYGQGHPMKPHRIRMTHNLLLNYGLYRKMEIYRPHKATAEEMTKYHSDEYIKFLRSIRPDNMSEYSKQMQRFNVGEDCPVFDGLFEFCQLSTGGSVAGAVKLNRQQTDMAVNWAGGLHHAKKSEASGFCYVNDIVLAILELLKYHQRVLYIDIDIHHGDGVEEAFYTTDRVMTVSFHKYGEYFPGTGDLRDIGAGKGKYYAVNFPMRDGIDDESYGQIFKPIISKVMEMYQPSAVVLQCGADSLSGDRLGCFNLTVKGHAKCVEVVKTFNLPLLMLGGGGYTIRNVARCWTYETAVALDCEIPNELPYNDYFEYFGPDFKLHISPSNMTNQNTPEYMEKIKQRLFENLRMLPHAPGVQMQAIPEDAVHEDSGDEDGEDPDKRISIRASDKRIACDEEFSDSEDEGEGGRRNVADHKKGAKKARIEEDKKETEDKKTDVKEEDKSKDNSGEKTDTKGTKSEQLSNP
T2 sequence (Q13547 whole entry): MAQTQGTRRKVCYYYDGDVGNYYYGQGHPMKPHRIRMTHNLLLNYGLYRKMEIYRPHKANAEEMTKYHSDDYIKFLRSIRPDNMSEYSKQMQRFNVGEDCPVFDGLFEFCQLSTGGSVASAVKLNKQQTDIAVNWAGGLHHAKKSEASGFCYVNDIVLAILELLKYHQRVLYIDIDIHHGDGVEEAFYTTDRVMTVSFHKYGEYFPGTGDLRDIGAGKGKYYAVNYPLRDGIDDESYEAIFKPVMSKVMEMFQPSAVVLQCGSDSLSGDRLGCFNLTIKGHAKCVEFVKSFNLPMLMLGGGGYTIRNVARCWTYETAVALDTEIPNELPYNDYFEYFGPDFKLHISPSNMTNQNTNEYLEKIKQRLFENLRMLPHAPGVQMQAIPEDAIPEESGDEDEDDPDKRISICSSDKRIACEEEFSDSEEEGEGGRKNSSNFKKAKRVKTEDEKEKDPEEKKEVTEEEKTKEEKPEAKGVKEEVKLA
T1 sequence (P56524 whole entry): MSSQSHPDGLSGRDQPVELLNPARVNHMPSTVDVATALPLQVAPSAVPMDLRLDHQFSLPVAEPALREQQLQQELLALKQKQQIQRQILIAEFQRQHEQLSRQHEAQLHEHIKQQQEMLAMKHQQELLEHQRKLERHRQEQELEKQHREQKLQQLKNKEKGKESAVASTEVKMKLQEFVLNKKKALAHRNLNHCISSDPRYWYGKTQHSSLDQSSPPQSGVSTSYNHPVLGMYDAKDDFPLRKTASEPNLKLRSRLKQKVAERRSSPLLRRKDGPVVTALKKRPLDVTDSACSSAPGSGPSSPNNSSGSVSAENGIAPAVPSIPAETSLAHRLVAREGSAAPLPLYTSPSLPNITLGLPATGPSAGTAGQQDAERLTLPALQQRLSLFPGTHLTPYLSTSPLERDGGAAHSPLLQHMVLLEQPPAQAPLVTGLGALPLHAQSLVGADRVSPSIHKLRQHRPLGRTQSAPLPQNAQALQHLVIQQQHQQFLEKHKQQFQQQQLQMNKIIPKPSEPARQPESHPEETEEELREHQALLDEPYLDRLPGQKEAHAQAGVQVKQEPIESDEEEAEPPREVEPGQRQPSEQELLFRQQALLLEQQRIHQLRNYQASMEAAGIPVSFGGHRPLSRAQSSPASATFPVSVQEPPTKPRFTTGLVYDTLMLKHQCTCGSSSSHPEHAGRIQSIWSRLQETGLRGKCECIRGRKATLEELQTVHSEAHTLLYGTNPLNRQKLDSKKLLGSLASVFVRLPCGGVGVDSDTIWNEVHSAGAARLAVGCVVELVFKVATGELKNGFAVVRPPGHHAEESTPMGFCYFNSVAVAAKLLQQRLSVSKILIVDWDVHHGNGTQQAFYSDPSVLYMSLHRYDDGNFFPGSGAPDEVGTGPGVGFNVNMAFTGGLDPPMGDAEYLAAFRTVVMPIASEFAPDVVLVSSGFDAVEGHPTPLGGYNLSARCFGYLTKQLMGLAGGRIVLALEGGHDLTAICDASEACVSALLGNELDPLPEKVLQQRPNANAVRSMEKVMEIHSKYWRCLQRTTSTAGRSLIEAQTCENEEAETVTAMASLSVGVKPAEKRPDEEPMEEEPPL

## Trapoxin B
HDAC4
  IC50: 0.0003 ± 3e-05 µM
HDAC6 [1]; Supp. Table 1
  IC50: 0.36 ± 0.16 µM

## Cyl-2
HDAC1 [2]
  IC50: 0.0007 ± 0.00045 µM
HDAC6 [1]; Supp. Table 1
  IC50: 40 µM

## N=C(N)NCCC[C@@H]1NC(=O)[C@@H](CCCNC(=N)N)NC(=O)[C@H]2CCCN2C(=O)[C@@H](Cc2c[nH]cn2)NC(=O)[C@H](Cc2ccc(O)cc2)NC(=O)[C@H](CCCCCS)NC(=O)[C@H](CCc2ccccc2)NC(=O)[C@@H](CCC(N)=O)NC(=O)[C@H](CC(=O)O)NC1=O [des3.3.0, SHA-Tyr-dHis-dPro-dArg- Arg-Asp-dGln-C27] (HELM PEPTIDE1{D.[dQ].[O=C([C@H](CCc1ccccc1)N[*:1])[*:2]].[O=C([C@H](CCCCCS)N[*:1])[*:2]].Y.[dH].[dP].[dR].R}$PEPTIDE1,PEPTIDE1,1:R1-9:R2$$$V2.0)
HDAC2 [3]; figure legends, Supp. Table 1, read-out: HDAC2 IC50
  IC50: 0.0091 µM
HDAC6 [4]; figure legends, Supp. Tables 1 and 8, read-out: HDAC6 IC50
  IC50: 0.0116 µM
HDAC1 [5]
  IC50: 0.0042 µM
HDAC3; Supp. Table 1
  IC50: 0.0064 µM
HDAC8
  IC50: 0.244 µM
HDAC2 [6]
  IC50: 0.01 to 0.1 µM

## NCCCC[C@@H]1NC(=O)[C@@H](CC(N)=O)NC(=O)[C@H]2CCCN2C(=O)[C@@H](Cc2c[nH]cn2)NC(=O)[C@H](Cc2ccc(O)cc2)NC(=O)[C@H](CCCCCS)NC(=O)[C@H](CCc2ccccc2)NC1=O [des3.2.4, SHA-Tyr-dHis-dPro-dAsn-Lys-C27] (HELM PEPTIDE1{K.[O=C([C@H](CCc1ccccc1)N[*:1])[*:2]].[O=C([C@H](CCCCCS)N[*:1])[*:2]].Y.[dH].[dP].[dN]}$PEPTIDE1,PEPTIDE1,1:R1-7:R2$$$V2.0)
HDAC2 [3]
  2-Selectivity: fold potency for HDAC2 over HDAC6: 0.43 fold
HDAC2 [3]; Conc. 1.00E-04 M
  HDAC2 activity raw data (signal): -2073
HDAC2 [3]; Conc. 1.11E-05 M
  HDAC2 activity raw data (signal): 877
HDAC2 [3]; Conc. 1.23E-06 M
  HDAC2 activity raw data (signal): 16887
HDAC2 [3]; Conc. 1.37E-07 M
  HDAC2 activity raw data (signal): 156676
HDAC2 [3]; Conc. 1.52E-08 M
  HDAC2 activity raw data (signal): 359436
HDAC2 [3]; Conc. 3.33E-05 M
  HDAC2 activity raw data (signal): -5431
HDAC2 [3]; Conc. 3.70E-06 M
  HDAC2 activity raw data (signal): -8111
HDAC2 [3]; Conc. 4.12E-07 M
  HDAC2 activity raw data (signal): 83192
HDAC2 [3]; Conc. 4.57E-08 M
  HDAC2 activity raw data (signal): 254992
HDAC2 [3]; Conc. 5.08E-09 M
  HDAC2 activity raw data (signal): 399941
HDAC6 [4]; Conc. 1.00E-04 M
  HDAC6 activity raw data (signal): -2801
HDAC6 [4]; Conc. 1.11E-05 M
  HDAC6 activity raw data (signal): -1849
HDAC6 [4]; Conc. 1.23E-06 M
  HDAC6 activity raw data (signal): 4374
HDAC6 [4]; Conc. 1.37E-07 M
  HDAC6 activity raw data (signal): 43765
HDAC6 [4]; Conc. 1.52E-08 M
  HDAC6 activity raw data (signal): 190706
HDAC6 [4]; Conc. 3.33E-05 M
  HDAC6 activity raw data (signal): -563
HDAC6 [4]; Conc. 3.70E-06 M
  HDAC6 activity raw data (signal): -1989
HDAC6 [4]; Conc. 4.12E-07 M
  HDAC6 activity raw data (signal): 12736
HDAC6 [4]; Conc. 4.57E-08 M
  HDAC6 activity raw data (signal): 97833
HDAC6 [4]; Conc. 5.08E-09 M
  HDAC6 activity raw data (signal): 278125
HDAC3; Conc. 1.00E-04 M
  HDAC3 activity raw data (signal): -9402
HDAC3; Conc. 1.11E-05 M
  HDAC3 activity raw data (signal): 593
HDAC3; Conc. 1.23E-06 M
  HDAC3 activity raw data (signal): 35444
HDAC3; Conc. 1.37E-07 M
  HDAC3 activity raw data (signal): 204357
HDAC3; Conc. 1.52E-08 M
  HDAC3 activity raw data (signal): 337866
HDAC3; Conc. 3.33E-05 M
  HDAC3 activity raw data (signal): -3894
HDAC3; Conc. 3.70E-06 M
  HDAC3 activity raw data (signal): 11659
HDAC3; Conc. 4.12E-07 M
  HDAC3 activity raw data (signal): 78893
HDAC3; Conc. 4.57E-08 M
  HDAC3 activity raw data (signal): 259781
HDAC3; Conc. 5.08E-09 M
  HDAC3 activity raw data (signal): 427232
HDAC2 [6]
  IC50: 0.054 µM

## C/C=C1\NC(=O)[C@H]2CSSCC/C=C/[C@H](CC(=O)N[C@H](C(C)C)C(=O)N2)OC(=O)[C@H](C(C)C)NC1=O [Romidepsin]
HDAC4
  IC50: 0.025 ± 0.0073 µM
HDAC6 [1]
  IC50: […]
